Measurements as given in the supplement of paper PMC11061612.

Key:
[1] = tested on: NCI-H211 (Small Cell Lung Carcinoma); assay: Bliss excess, mean over the matrix (fraction); higher = more synergy
Summary of the method: (§1)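 Bliss excess equals the observed combination effect minus the expected value EA + EB − EA·EB, where EA and EB are the effects of each agent alone. Combination Emax is the second-highest inhibition within the matrix. Inhibition was scaled from CellTiter-Glo 2.0 luminescence, with 0 set by vehicle wells and 1 by blank wells, after 72 hours of two-drug dosing of cells plated in 1536-well plates.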

[2] = tested on: DSH1 (Bladder Carcinoma); assay: combination Emax (second highest fraction inhibited in the dose matrix, 72 h); higher = more inhibition; extreme values may be limits of the assay
Summary of the method: as §1

[3] = tested on: NCI-H211 (Small Cell Lung Carcinoma); assay: as above
Summary of the method: as §1

[4] = tested on: JiyoyeP-2003 (Burkitt's Lymphoma); assay: as above
Summary of the method: as §1

SMILES: NC1(C(=O)N[C@@H](CCO)c2ccc(Cl)cc2)CCN(c2ncnc3[nH]ccc23)CC1 [Capivasertib] + C[C@@H]1COCCN1C2=NC(=NC(=C2)C3(CC3)[S@](=N)(=O)C)C4=C5C=CNC5=NC=C4 [AZD6738] (first compound max 10 µM, 7x7, partner max 10 µM)
- Bliss excess [1]: 0.0232
- combination Emax [2]: 0.848
- combination Emax [3]: 0.665
- combination Emax [4]: 0.93

SMILES: COc1nnc2ccc(N3CCC(c4ccc(OCCN5CCN(C)C(=O)[C@H]5C)cc4)CC3)nn12 [AZD5153] + C=CCn1c(=O)c2cnc(Nc3ccc(N4CCN(C)CC4)cc3)nc2n1-c1cccc(C(C)(C)O)n1 [AZD1775] (first compound max 1 µM, partner max 1 µM)
- Bliss excess [1]: -0.0008
- combination Emax [2]: 0.614
- combination Emax [3]: 0.993
- combination Emax [4]: 0.944

SMILES: CS(=O)(=O)CCNCc1ccc(-c2ccc3ncnc(Nc4ccc(OCc5cccc(F)c5)c(Cl)c4)c3c2)o1 [Lapatinib] + C[C@@H](Oc1cc(-c2cnn(C3CCNCC3)c2)cnc1N)c1c(Cl)ccc(F)c1Cl [Crizotinib] (first compound max 10 µM, 7x7, partner max 10 µM)
- Bliss excess [1]: -0.0329
- combination Emax [2]: 1
- combination Emax [3]: 0.948
- combination Emax [4]: 0.863

SMILES: Cn1cnc2c(F)c(Nc3ccc(Br)cc3Cl)c(C(=O)NOCCO)cc21 [Selumetinib] + CCN(CCO)CCCOc1ccc2c(Nc3cc(CC(=O)Nc4cccc(F)c4)[nH]n3)ncnc2c1 [AZD2811] (first compound max 10 µM, 7x7, partner max 1 µM)
- Bliss excess [1]: -0.0446
- combination Emax [2]: 0.383
- combination Emax [3]: 0.938
- combination Emax [4]: 0.235

SMILES: COc1cc2ncnc(Nc3ccc(F)c(Cl)c3)c2cc1OCCCN1CCOCC1 [Gefitinib] + CC(C)n1c(=O)n(C)c2cnc3cc(F)c(-c4ccc(OCCCN5CCCCC5)nc4)cc3c21 [AZD1390] (first compound max 10 µM, 7x7, partner max 0.3 µM)
- Bliss excess [1]: -0.053
- combination Emax [2]: 0.858
- combination Emax [3]: 0.227
- combination Emax [4]: 0.119

SMILES: Cn1cnc2c(F)c(Nc3ccc(Br)cc3Cl)c(C(=O)NOCCO)cc21 [Selumetinib] + CC(C)n1c(=O)n(C)c2cnc3cc(F)c(-c4ccc(OCCCN5CCCCC5)nc4)cc3c21 [AZD1390] (first compound max 10 µM, 7x7, partner max 0.3 µM)
- Bliss excess [1]: -0.0015
- combination Emax [2]: 0.323
- combination Emax [3]: 0.239
- combination Emax [4]: 0.191

SMILES: NC1(C(=O)N[C@@H](CCO)c2ccc(Cl)cc2)CCN(c2ncnc3[nH]ccc23)CC1 [Capivasertib] + CCN(CCO)CCCOc1ccc2c(Nc3cc(CC(=O)Nc4cccc(F)c4)[nH]n3)ncnc2c1 [AZD2811] (first compound max 10 µM, 7x7, partner max 1 µM)
- Bliss excess [1]: -0.0107
- combination Emax [2]: 0.668
- combination Emax [3]: 0.944
- combination Emax [4]: 0.777

SMILES: NC1(C(=O)N[C@@H](CCO)c2ccc(Cl)cc2)CCN(c2ncnc3[nH]ccc23)CC1 [Capivasertib] + CC(C)n1c(=O)n(C)c2cnc3cc(F)c(-c4ccc(OCCCN5CCCCC5)nc4)cc3c21 [AZD1390] (first compound max 10 µM, 7x7, partner max 0.3 µM)
- Bliss excess [1]: -0.0294
- combination Emax [2]: 0.615
- combination Emax [3]: 0.488
- combination Emax [4]: 0.685

SMILES: CC(=O)c1c(C)c2cnc(Nc3ccc(N4CCNCC4)cn3)nc2n(C2CCCC2)c1=O [Palbociclib] + Cc1c2c(nn1C)CSCc1cc(n(C)n1)CSc1cc(c3ccccc3c1)OCCCc1c(C(=O)O)n(C)c3c-2c(Cl)ccc13 [AZD5991] (first compound max 10 µM, 7x7, partner max 1 µM)
- Bliss excess [1]: 0.118
- combination Emax [2]: 0.523
- combination Emax [3]: 0.905
- combination Emax [4]: 0.588

SMILES: C[C@@H](c1ccc2nccn2c1)n1nnc2ncc(-c3cnn(C)c3)nc21 [Savolitinib] + Cc1c2c(nn1C)CSCc1cc(n(C)n1)CSc1cc(c3ccccc3c1)OCCCc1c(C(=O)O)n(C)c3c-2c(Cl)ccc13 [AZD5991] (first compound max 1 µM, 7x7, partner max 1 µM)
- Bliss excess [1]: 0.033
- combination Emax [2]: 0.678
- combination Emax [3]: 0.859
- combination Emax [4]: 0.166

SMILES: NC1(C(=O)N[C@@H](CCO)c2ccc(Cl)cc2)CCN(c2ncnc3[nH]ccc23)CC1 [Capivasertib] + CC(=O)c1c(C)c2cnc(Nc3ccc(N4CCNCC4)cn3)nc2n(C2CCCC2)c1=O [Palbociclib] (first compound max 10 µM, 7x7, partner max 10 µM)
- Bliss excess [1]: 0.0926
- combination Emax [2]: 0.62
- combination Emax [3]: 0.59
- combination Emax [4]: 0.683

SMILES: C[C@@H](c1ccc2nccn2c1)n1nnc2ncc(-c3cnn(C)c3)nc21 [Savolitinib] + CC1(C)CCC(CN2CCN(c3ccc(C(=O)NS(=O)(=O)c4ccc(NCC5CCOCC5)c([N+](=O)[O-])c4)c(Oc4cnc5[nH]ccc5c4)c3)CC2)=C(c2ccc(Cl)cc2)C1 [Venetoclax] (first compound max 1 µM, 7x7, partner max 1 µM)
- Bliss excess [1]: 0.0317
- combination Emax [2]: 0.286
- combination Emax [3]: 0.744
- combination Emax [4]: 0.162

SMILES: NC1(C(=O)N[C@@H](CCO)c2ccc(Cl)cc2)CCN(c2ncnc3[nH]ccc23)CC1 [Capivasertib] + Cn1cnc2c(F)c(Nc3ccc(Br)cc3Cl)c(C(=O)NOCCO)cc21 [Selumetinib] (first compound max 10 µM, 7x7, partner max 10 µM)
- Bliss excess [1]: 0.119
- combination Emax [2]: 0.954
- combination Emax [3]: 0.568
- combination Emax [4]: 0.775

SMILES: CC(=O)c1c(C)c2cnc(Nc3ccc(N4CCNCC4)cn3)nc2n(C2CCCC2)c1=O [Palbociclib] + CC1(C)CCC(CN2CCN(c3ccc(C(=O)NS(=O)(=O)c4ccc(NCC5CCOCC5)c([N+](=O)[O-])c4)c(Oc4cnc5[nH]ccc5c4)c3)CC2)=C(c2ccc(Cl)cc2)C1 [Venetoclax] (first compound max 10 µM, 7x7, partner max 1 µM)
- Bliss excess [1]: 0.0694
- combination Emax [2]: 0.439
- combination Emax [3]: 0.965
- combination Emax [4]: 0.614

SMILES: COc1nnc2ccc(N3CCC(c4ccc(OCCN5CCN(C)C(=O)[C@H]5C)cc4)CC3)nn12 [AZD5153] + CCN(CCO)CCCOc1ccc2c(Nc3cc(CC(=O)Nc4cccc(F)c4)[nH]n3)ncnc2c1 [AZD2811] (first compound max 1 µM, 7x7, partner max 1 µM)
- Bliss excess [1]: -0.0081
- combination Emax [2]: 0.651
- combination Emax [3]: 1
- combination Emax [4]: 0.846

SMILES: COc1nnc2ccc(N3CCC(c4ccc(OCCN5CCN(C)C(=O)[C@H]5C)cc4)CC3)nn12 [AZD5153] + Cc1c2c(nn1C)CSCc1cc(n(C)n1)CSc1cc(c3ccccc3c1)OCCCc1c(C(=O)O)n(C)c3c-2c(Cl)ccc13 [AZD5991] (first compound max 1 µM, 7x7, partner max 1 µM)
- Bliss excess [1]: -0.0175
- combination Emax [2]: 1
- combination Emax [3]: 1
- combination Emax [4]: 0.918

SMILES: Cn1cnc2c(F)c(Nc3ccc(Br)cc3Cl)c(C(=O)NOCCO)cc21 [Selumetinib] + C=CCn1c(=O)c2cnc(Nc3ccc(N4CCN(C)CC4)cc3)nc2n1-c1cccc(C(C)(C)O)n1 [AZD1775] (first compound max 10 µM, partner max 1 µM)
- Bliss excess [1]: 0.0248
- combination Emax [2]: 0.503
- combination Emax [3]: 0.831
- combination Emax [4]: 0.947

SMILES: NC1(C(=O)N[C@@H](CCO)c2ccc(Cl)cc2)CCN(c2ncnc3[nH]ccc23)CC1 [Capivasertib] + COc1nnc2ccc(N3CCC(c4ccc(OCCN5CCN(C)C(=O)[C@H]5C)cc4)CC3)nn12 [AZD5153] (first compound max 10 µM, 7x7, partner max 1 µM)
- Bliss excess [1]: -0.0113
- combination Emax [2]: 0.941
- combination Emax [3]: 1
- combination Emax [4]: 0.912

SMILES: CC1(C)CCC(CN2CCN(c3ccc(C(=O)NS(=O)(=O)c4ccc(NCC5CCOCC5)c([N+](=O)[O-])c4)c(Oc4cnc5[nH]ccc5c4)c3)CC2)=C(c2ccc(Cl)cc2)C1 [Venetoclax] + CCN(CCO)CCCOc1ccc2c(Nc3cc(CC(=O)Nc4cccc(F)c4)[nH]n3)ncnc2c1 [AZD2811] (first compound max 1 µM, 7x7, partner max 1 µM)
- combination Emax [2]: 0.271
- combination Emax [4]: 0.382

SMILES: Cc1c2c(nn1C)CSCc1cc(n(C)n1)CSc1cc(c3ccccc3c1)OCCCc1c(C(=O)O)n(C)c3c-2c(Cl)ccc13 [AZD5991] + C[C@@H](Nc1cc(F)cc(F)c1)c1cc(C(=O)N(C)C)cc2c(=O)cc(N3CCOCC3)oc12 [AZD8186] (first compound max 1 µM, 7x7, partner max 3 µM)
- combination Emax [2]: 0.582
- combination Emax [4]: 0.718

SMILES: COc1nnc2ccc(N3CCC(c4ccc(OCCN5CCN(C)C(=O)[C@H]5C)cc4)CC3)nn12 [AZD5153] + C[C@@H]1COCCN1C2=NC(=NC(=C2)C3(CC3)[S@](=N)(=O)C)C4=C5C=CNC5=NC=C4 [AZD6738] (first compound max 1 µM, 7x7, partner max 10 µM)
- Bliss excess [1]: -0.008
- combination Emax [2]: 0.808
- combination Emax [3]: 1
- combination Emax [4]: 0.95

SMILES: Cc1c2c(nn1C)CSCc1cc(n(C)n1)CSc1cc(c3ccccc3c1)OCCCc1c(C(=O)O)n(C)c3c-2c(Cl)ccc13 [AZD5991] + CC1(C)CCC(CN2CCN(c3ccc(C(=O)NS(=O)(=O)c4ccc(NCC5CCOCC5)c([N+](=O)[O-])c4)c(Oc4cnc5[nH]ccc5c4)c3)CC2)=C(c2ccc(Cl)cc2)C1 [Venetoclax] (first compound max 1 µM, 7x7, partner max 1 µM)
- combination Emax [2]: 0.964
- combination Emax [4]: 0.732

SMILES: CC1(C)CCC(CN2CCN(c3ccc(C(=O)NS(=O)(=O)c4ccc(NCC5CCOCC5)c([N+](=O)[O-])c4)c(Oc4cnc5[nH]ccc5c4)c3)CC2)=C(c2ccc(Cl)cc2)C1 [Venetoclax] + Cn1cnc2c(F)c(Nc3ccc(Br)cc3Cl)c(C(=O)NOCCO)cc21 [Selumetinib] (first compound max 1 µM, 7x7, partner max 3 µM)
- combination Emax [2]: 0.341
- combination Emax [4]: 0.304

SMILES: CN(CCO)CC[C@H](CSc1ccccc1)Nc1ccc(S(=O)(=O)NC(=O)c2ccc(N3CCC([C@@H](O)c4ccccc4-c4ccc(Cl)cc4)CC3)cc2)cc1S(=O)(=O)C(F)(F)F [AZD4320] + Cn1cnc2c(F)c(Nc3ccc(Br)cc3Cl)c(C(=O)NOCCO)cc21 [Selumetinib] (first compound max 1 µM, 7x7, partner max 3 µM)
- combination Emax [2]: 0.565
- combination Emax [4]: 0.84

SMILES: CN(CCO)CC[C@H](CSc1ccccc1)Nc1ccc(S(=O)(=O)NC(=O)c2ccc(N3CCC([C@@H](O)c4ccccc4-c4ccc(Cl)cc4)CC3)cc2)cc1S(=O)(=O)C(F)(F)F [AZD4320] + C1CN(CCC1(C(=O)N[C@@H](CCO)C2=CC=C(C=C2)Cl)N)C3=NC=NC4=C3C=CN4 [Capivasertib] (first compound max 1 µM, 7x7, partner max 3 µM)
- combination Emax [2]: 0.686
- combination Emax [4]: 0.773
